According to patent US8088761B2, “Enzyme inhibitors” (Cancer Research Technology Limited, priority 2005, dated 2012):

Tests used:
[1] = target: T1, Aurora-A (Homo sapiens, UniProt O14965); experiment: Flashplate Aurora A enzyme inhibition assay; type: biochemical; details: Flashplate assay; IC50 range; read-out: Aurora-A inhibition
T1 sequence (O14965 1-403): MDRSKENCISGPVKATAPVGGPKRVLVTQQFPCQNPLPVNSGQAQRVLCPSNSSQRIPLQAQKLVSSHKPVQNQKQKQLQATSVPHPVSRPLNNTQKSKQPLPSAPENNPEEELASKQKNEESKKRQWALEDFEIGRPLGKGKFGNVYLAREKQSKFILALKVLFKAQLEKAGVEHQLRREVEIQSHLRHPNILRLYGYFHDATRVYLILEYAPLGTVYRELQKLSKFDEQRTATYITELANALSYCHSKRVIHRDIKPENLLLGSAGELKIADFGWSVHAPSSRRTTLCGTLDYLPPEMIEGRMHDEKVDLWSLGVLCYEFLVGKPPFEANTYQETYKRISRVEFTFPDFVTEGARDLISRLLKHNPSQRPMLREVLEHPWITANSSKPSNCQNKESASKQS
Procedure, shortened: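 This is a radiometric Flashplate format: plates were precoated with DTT, and compound (in 2% DMSO) was mixed with kinase buffer (pH 7.5 Tris, MgCl2, NaCl) containing 1 mM MBP, 20 μM ATP and ^33P-ATP. The reaction was started with 250 ng Aurora-A per well and incubated 2 h at RT. It was then stopped by 10 mM sodium pyrophosphate washing, and plates were scintillation-counted.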

[2] = system: HCT116 cells; experiment: Cell viability assay (MTT) in HCT116 cell line; type: cell-based; details: Homo sapiens, HCT-116, 72 hrs, IC50 range, read-out: HCT116 cell growth inhibition
Procedure, shortened: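 MTT read-out (4 hrs, 37 °C, DMSO extraction) following 72 hrs of treatment with 0-50 μM Aurora inhibitor. HCT116 cells were plated a day earlier and tested in triplicate; IC50 derived from the curve.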

[3] = target: Aurora-B (Homo sapiens, UniProt Q96GD4); experiment: Filterplate assay for Aurora-B inhibitors; type: biochemical; details: read-out: IC50 range in respect of Aurora-B
Chain of Aurora-B (Q96GD4 whole entry): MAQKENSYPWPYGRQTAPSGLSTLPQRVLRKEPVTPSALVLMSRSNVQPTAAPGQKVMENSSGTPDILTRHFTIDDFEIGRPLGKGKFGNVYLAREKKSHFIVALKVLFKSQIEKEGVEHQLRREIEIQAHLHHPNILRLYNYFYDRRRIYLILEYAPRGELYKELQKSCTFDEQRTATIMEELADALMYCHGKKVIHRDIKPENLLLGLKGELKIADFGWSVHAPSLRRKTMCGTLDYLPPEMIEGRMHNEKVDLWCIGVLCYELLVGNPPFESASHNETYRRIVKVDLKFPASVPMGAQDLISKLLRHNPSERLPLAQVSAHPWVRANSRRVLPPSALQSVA
Experimental: (§1) 40 μl master mix of kinase buffer (50 mM Tris pH 7.5, 10 mM NaCl, 2.5 mM MgCL2, 1 mM DTT, 20 μM ATP, 0.025 μCi/μl ^33P-ATP, and 100 μg/ml MBP was added to a 96-well plate followed by addition of 250 ng of Aurora-A enzyme per well. The plate was shaken for approximately 2 min on a flat-bed plate shaker (Wellmix, Denley, UK) and incubated for 2 hours at room temperature. The reaction was stopped by the addition of 30 μl of 2% orthophosphoric acid. The reaction mixture was then transferred and filtered on the 96-well Multi-Screening Filter Plate (MATAH0P00, MILLIPORE), pre-treated with 50 μl per well of 0.5% orthophosphoric acid. The plate was washed twice with 200 μl of 0.5% orthophosphoric acid and vacuum-dried. 25 μl of scintillant (Microscint™20, PerkinElmer) per well was added and the plate was shaken for 10 min. Finally, the plate was re-sealed with TopSealA and the signal from the filter-bound component was read on TopCount-NXT™ (PerkinElmer Life Sciences UK Ltd., Hounslow, UK).
(§2) Filterplate Assay for Identification and Evaluation of Aurora-B and Aurora-C Inhibitors
(§3) For the determination of the inhibitory activity against Aurora-B or Aurora-C, the same conditions were followed in the assay using Aurora-B or Aurora-C enzymes.

[4] = target: T2, Aurora-C (Homo sapiens, UniProt Q9UQB9); experiment: Filterplate assay for Aurora-C inhibitors; type: biochemical; details: read-out: IC50 range in respect of Aurora-C
T2 sequence (Q9UQB9 1-309): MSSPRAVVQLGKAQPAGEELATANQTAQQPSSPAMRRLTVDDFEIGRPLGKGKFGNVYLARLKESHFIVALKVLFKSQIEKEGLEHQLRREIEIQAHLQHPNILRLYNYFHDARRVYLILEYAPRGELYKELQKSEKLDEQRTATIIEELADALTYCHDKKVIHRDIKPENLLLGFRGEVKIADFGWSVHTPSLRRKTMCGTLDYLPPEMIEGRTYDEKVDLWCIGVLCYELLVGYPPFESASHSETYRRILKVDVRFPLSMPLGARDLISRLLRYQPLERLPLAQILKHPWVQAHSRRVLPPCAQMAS
Experimental: as §1, §2, §3

Row | IC50 [1] | IC50 [2] | IC50 [3] | IC50 [4] | Structure (SMILES)
1 | < 500 nM | < 500 nM | 500 to 2000 nM | < 500 nM | Brc1cnc2[nH]c(-c3ccc(CN4CCOCC4)cc3)nc2c1N1CCN(Cc2cccnc2)CC1 [Example 65, 6-Bromo-2-(4-morpholin-4-ylmethyl-phenyl)-7-(4-pyridin-3-ylmethyl-piperazin-1-yl)-3H-imidazo[4,5-b]pyridine]
2 | < 500 nM | < 500 nM | < 500 nM | < 500 nM | Cc1cc(CN2CCN(c3c(Br)cnc4[nH]c(-c5ccc(CN6CCOCC6)cc5)nc34)CC2)no1 [Example 75, 6-Bromo-7-[4-(5-methyl-isoxazol-3-ylmethyl)-piperazin-1-yl]-2-(4-morpholin-4-ylmethyl-phenyl)-3H-imidazo[4,5-b]pyridine]
3 | < 500 nM | < 500 nM | < 500 nM | < 500 nM | Cc1cc(CN2CCN(c3c(Br)cnc4[nH]c(-c5ccc(Cn6cccn6)cc5)nc34)CC2)no1 [Example 77, 6-Bromo-7-[4-(5-methyl-isoxazol-3-ylmethyl)-piperazin-1-yl]-2-(4-pyrazol-1-ylmethyl-phenyl)-3H-imidazo[4,5-b]pyridine]
4 | < 500 nM | < 500 nM | 500 to 2000 nM | < 500 nM | Brc1cnc2[nH]c(-c3ccc(CN4CCNCC4)cc3)nc2c1N1CCN(Cc2cccnc2)CC1 [Example 106, 6-Bromo-2-(4-(piperazin-1-ylmethyl)phenyl)-7-(4-(pyridin-3-ylmethyl)piperazin-1-yl)-3H-imidazo[4,5-b]pyridine]
5 | < 500 nM | < 500 nM | < 500 nM | < 500 nM | Brc1cnc2[nH]c(-c3ccc(CN4CCOCC4)cc3)nc2c1N1CCN(Cc2cncnc2)CC1 [Example 122, 4-(4-(6-Bromo-7-(4-(pyrimidin-5-ylmethyl)piperazin-1-yl)-3H-imidazo[4,5-b]pyridin-2-yl)benzyl)morpholine]
6 | < 500 nM | 500 to 2000 nM | – | – | Cn1cncc1CN1CCN(c2c(Br)cnc3[nH]c(-c4ccc(CN5CCOCC5)cc4)nc23)CC1 [Example 169, 4-(4-(6-Bromo-7-(4-((1-methyl-1H-imidazol-5-yl)methyl)piperazin-1-yl)-3H-imidazo[4,5-b]pyridin-2-yl)benzyl)morpholine]
7 | < 500 nM | 500 to 2000 nM | – | – | Brc1cnc2[nH]c(-c3ccc(CN4CCOCC4)cc3)nc2c1N1CCN(Cc2cncs2)CC1 [Example 171, 4-(4-(6-Bromo-7-(4-(thiazol-5-ylmethyl)piperazin-1-yl)-3H-imidazo[4,5-b]pyridin-2-yl)benzyl)morpholine]
8 | < 500 nM | < 500 nM | – | – | Cc1nc(CN2CCN(c3c(Cl)cnc4[nH]c(-c5ccc(Cn6cccn6)cc5)nc34)CC2)cs1 [Example 173, 4-((4-(2-(4-((1H-Pyrazol-1-yl)methyl)phenyl)-6-chloro-3H-imidazo[4,5-b]pyridin-7-yl)piperazin-1-yl)methyl)-2-methylthiazole]
9 | < 500 nM | < 500 nM | – | – | Cc1nc(CN2CCN(c3c(Cl)cnc4[nH]c(-c5ccc(CN6CCNCC6)cc5)nc34)CC2)cs1 [Example 175, 4-((4-(6-Chloro-2-(4-(piperazin-1-ylmethyl)phenyl)-3H-imidazo[4,5-b]pyridin-7-yl)piperazin-1-yl)methyl)-2-methylthiazole]
10 | < 500 nM | 500 to 2000 nM | – | – | Brc1cnc2[nH]c(-c3ccc(CN4CCNCC4)cc3)nc2c1N1CCN(Cc2cscn2)CC1 [Example 179, 4-((4-(6-Bromo-2-(4-(piperazin-1-ylmethyl)phenyl)-3H-imidazo[4,5-b]pyridin-7-yl)piperazin-1-yl)methyl)thiazole]
11 | < 500 nM | 2000 to 50000 nM | – | – | Cn1cncc1CN1CCN(c2c(Br)cnc3[nH]c(-c4ccc(CN5CCNCC5)cc4)nc23)CC1 [Example 181, 6-bromo-7-(4-((1-methyl-1H-imidazol-5-yl)methyl)piperazin-1-yl)-2-(4-(piperazin-1-ylmethyl)phenyl)-3H-imidazo[4,5-b]pyridine]
12 | < 500 nM | 500 to 2000 nM | – | – | Cn1cncc1CN1CCN(c2c(Br)cnc3[nH]c(-c4ccc(Cn5cccn5)cc4)nc23)CC1 [Example 182, 2-(4-((1H-Pyrazol-1-yl)methyl)phenyl)-6-bromo-7-(4-((1-methyl-1H-imidazol-5-yl)methyl)piperazin-1-yl)-3H-imidazo[4,5-b]pyridine]
13 | < 500 nM | 500 to 2000 nM | – | – | O=C(CN1CCN(c2c(Cl)cnc3[nH]c(-c4ccc(OCCO)cc4)nc23)CC1)Nc1nccs1 [Example 183, 2-(4-(6-Chloro-2-(4-(2-hydroxyethoxy)phenyl)-3H-imidazo[4,5-b]pyridin-7-yl)piperazin-1-yl)-N-(thiazol-2-yl)acetamide]
14 | < 500 nM | 500 to 2000 nM | – | – | O=C(CN1CCN(c2c(Cl)cnc3[nH]c(-c4ccc(N5CCC(O)CC5)cc4)nc23)CC1)Nc1nccs1 [Example 184, 2-(4-(6-Chloro-2-(4-(4-hydroxypiperidin-1-yl)phenyl)-3H-imidazo[4,5-b]pyridin-7-yl)piperazin-1-yl)-N-(thiazol-2-yl)acetamide]
15 | < 500 nM | < 500 nM | – | – | O=C(CN1CCN(c2c(Cl)cnc3[nH]c(-c4cccc(OCCN5CCOCC5)c4)nc23)CC1)Nc1nccs1 [Example 185, 2-(4-(6-Chloro-2-(3-(2-morpholinoethoxy)phenyl)-3H-imidazo[4,5-b]pyridin-7-yl)piperazin-1-yl)-N-(thiazol-2-yl)acetamide]
16 | < 500 nM | < 500 nM | – | – | CN(C)CCOc1ccc(-c2nc3c(N4CCN(CC(=O)Nc5nccs5)CC4)c(Cl)cnc3[nH]2)cc1 [Example 186, 2-(4-(6-Chloro-2-(4-(2-(dimethylamino)ethoxy)phenyl)-3H-imidazo[4,5-b]pyridin-7-yl)piperazin-1-yl)-N-(thiazol-2-yl)acetamide]
17 | < 500 nM | 500 to 2000 nM | – | – | O=C(CN1CCN(c2c(Cl)cnc3[nH]c(-c4ccc(N5CCS(=O)(=O)CC5)cc4)nc23)CC1)Nc1nccs1 [Example 187, 2-(4-(6-Chloro-2-(4-(1,1-dioxothiomorpholino)phenyl)-3H-imidazo[4,5-b]pyridin-7-yl)piperazin-1-yl)-N-(thiazol-2-yl)acetamide]

Row | Structure (SMILES) | IC50 [1] | IC50 [2] | IC50 [3] | IC50 [4]
18 | COc1ccc(-c2nc3c(N4CCN(Cc5cncs5)CC4)c(Br)cnc3[nH]2)cc1 [Example 170, 5-((4-(6-Bromo-2-(4-methoxyphenyl)-3H-imidazo[4,5-b]pyridin-7-yl)piperazin-1-yl)methyl)thiazole] | < 500 nM | 500 to 2000 nM | – | –
19 | Cc1nc(CN2CCN(c3c(Cl)cnc4[nH]c(-c5ccc(CN6CCOCC6)cc5)nc34)CC2)cs1 [Example 172, 4-(4-(6-Chloro-7-(4-((2-methylthiazol-4-yl)methyl)piperazin-1-yl)-3H-imidazo[4,5-b]pyridin-2-yl)benzyl)morpholine] | < 500 nM | 500 to 2000 nM | – | –
20 | CN(C)c1ccc(-c2nc3c(N4CCN(CCc5ccccc5)CC4)c(Cl)cnc3[nH]2)cc1 [Example 176, 4-(6-Chloro-7-(4-phenethylpiperazin-1-yl)-3H-imidazo[4,5-b]pyridin-2-yl)-N,N-dimethylaniline] | 500 to 2000 nM | 2000 to 50000 nM | – | –
21 | Clc1cnc2[nH]c(-c3ccc(CN4CCOCC4)cc3)nc2c1N1CCN(Cc2cscn2)CC1 [Example 177, 4-(4-(6-Chloro-7-(4-(thiazol-4-ylmethyl)piperazin-1-yl)-3H-imidazo[4,5-b]pyridin-2-yl)benzyl)morpholine] | < 500 nM | 500 to 2000 nM | – | –
